Results taken from PubChem BioAssay AID256 (DTP/NCI, 2004).
“And” between values parts separate entries of the source, which are not always exact repeats. Identical values can stand only once. Toxic doses and inconclusive results are not listed. How the source made its calls: active means survival T/C of 150% or more; inactive means T/C below 125% in these data.

System: CD2F1 mice, L1210 leukemia ip, survival T/C
Assay: NCI In Vivo Anticancer Drug Screen. Data for tumor model L1210 Leukemia (intraperitoneal) in CD2F1 (CDF1) mice
Details: endpoint: mean survival time, higher = longer survival
In short: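 Antitumor effect is scored in animals hosting a serially transplanted tumor. Values compare compound-dosed animals against vehicle-only controls as a simple quotient.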

[1] = dose: 100.0 mg/kg/injection, schedule: Q01DX009 (ip), vehicle: Klucel (hydroxypropylcellulose) (HPC)
[2] = dose: 200.0 mg/kg/injection, schedule: Q01DX009 (ip), vehicle: Klucel (hydroxypropylcellulose) (HPC)
[3] = dose: 400.0 mg/kg/injection, schedule: Q01DX009 (ip), vehicle: Klucel (hydroxypropylcellulose) (HPC)
[4] = dose: 25.0 mg/kg/injection, schedule: Q01DX009 (ip), vehicle: saline with Tween-80
[5] = dose: 100.0 mg/kg/injection, schedule: Q01DX009 (ip), vehicle: saline with Tween-80
[6] = dose: 100.0 mg/kg/injection, schedule: Q04DX003 (ip), vehicle: saline with Tween-80
[7] = dose: 200.0 mg/kg/injection, schedule: Q04DX003 (ip), vehicle: saline with Tween-80
[8] = dose: 400.0 mg/kg/injection, schedule: Q04DX003 (ip), vehicle: saline with Tween-80
[9] = dose: 50.0 mg/kg/injection, schedule: Q01DX009 (ip), vehicle: saline with Tween-80
[10] = dose: 75.0 mg/kg/injection, schedule: Q01DX001 (ip), vehicle: saline
[11] = dose: 50.0 mg/kg/injection, schedule: Q01DX009 (ip), vehicle: Klucel (hydroxypropylcellulose) (HPC)
[12] = dose: 200.0 mg/kg/injection, schedule: Q01DX009 (ip), vehicle: saline with Tween-80
[13] = dose: 400.0 mg/kg/injection, schedule: Q01DX009 (ip), vehicle: saline with Tween-80
[14] = dose: 100.0 mg/kg/injection, schedule: Q01DX001 (ip), vehicle: saline with Tween-80
[15] = dose: 200.0 mg/kg/injection, schedule: Q01DX001 (ip), vehicle: saline with Tween-80
[16] = dose: 400.0 mg/kg/injection, schedule: Q01DX001 (ip), vehicle: saline with Tween-80
[17] = dose: 25.0 mg/kg/injection, schedule: Q04DX003 (ip), vehicle: saline with Tween-80
[18] = dose: 50.0 mg/kg/injection, schedule: Q04DX003 (ip), vehicle: saline with Tween-80
[19] = dose: 100.0 mg/kg/injection, schedule: Q04DX003 (ip), vehicle: saline
[20] = dose: 200.0 mg/kg/injection, schedule: Q04DX003 (ip), vehicle: saline
[21] = dose: 400.0 mg/kg/injection, schedule: Q04DX003 (ip), vehicle: saline
[22] = dose: 100.0 mg/kg/injection, schedule: Q01DX001 (ip), vehicle: saline
[23] = dose: 200.0 mg/kg/injection, schedule: Q01DX001 (ip), vehicle: saline
[24] = dose: 400.0 mg/kg/injection, schedule: Q01DX001 (ip), vehicle: saline

Measured: T/C

O=C(OC(=O)c1cccc(-c2ccccc2)c1)c1cccc(-c2ccccc2)c1
inactive: [1] 109 % of control | [2] 100 % of control | [3] 97 % of control

CC(C)(C)OC(=O)NC(CCC(=O)OCc1ccccc1)C(=O)O (centres undefined) (tested in a mixture with another compound)
inactive: [4] 91 % of control | [5] 96 % of control and 98 % of control

CN(C)S(=O)(=O)c1cc(Cl)ccc1NN
inactive: [6] 98 % of control | [7] 104 % of control | [8] 104 % of control

CCCSCCSCCC
inactive: [4] 103 % of control | [9] 103 % of control | [5] 117 % of control

CC(C)=CC(C)OC(=O)N(C)C (centres undefined)
inactive: [6] 97 % of control | [7] 94 % of control

CSc1nnc(Sc2ccccc2)c(SC)n1
inactive: [10] 101 % of control | dose: 150.0 mg/kg/injection, schedule: Q01DX001 (ip), vehicle: saline 98 % of control

Cc1cc(N(CCCl)CCCl)ccc1C=Nc1cccnc1
inactive: [11] 101 % of control | [1] 106 % of control | [2] 110 % of control | [3] 112 % of control

CC[C@]1(O)C[C@H](OC2CC(N(C)C)C(OC3CC(O)C(O)C(C)O3)C(C)O2)c2c(cc3c(c2O)C(=O)c2c(O)ccc(O)c2C3=O)[C@H]1C(=O)OC (some centres undefined)
inactive: dose: 0.12 mg/kg/injection, schedule: Q01DX009 (ip), vehicle: Klucel (hydroxypropylcellulose) (HPC) 114 % of control and 109 % of control and 110 % of control

C=C(C)C12CC(C)C34OC(CCCCCCCCCCC)(OC1C3C1OC1(CO)C(O)C1(O)C(=O)C(C)=CC14C)O2 (centres undefined)
inactive: dose: 0.05 mg/kg/injection, schedule: Q01DX009 (ip), vehicle: other 94 % of control | dose: 0.1 mg/kg/injection, schedule: Q01DX009 (ip), vehicle: other 89 % of control | dose: 0.2 mg/kg/injection, schedule: Q01DX009 (ip), vehicle: other 89 % of control | dose: 0.4 mg/kg/injection, schedule: Q01DX009 (ip), vehicle: other 89 % of control

OCC(CO)(CO)CO
inactive: [11] 93 % of control | [1] 93 % of control | [2] 96 % of control

COC(=O)C(CSCc1ccccc1)NC(=O)C(C)NC(=O)OCc1ccccc1 (centres undefined)
inactive: [5] 88 % of control | [12] 92 % of control | [13] 92 % of control

CC(=O)c1cccc(C(=O)O)c1
inactive: [14] 103 % of control | [15] 101 % of control | [16] 103 % of control

CC(C)C(=O)OC1(C(C)c2ccccc2)C(=O)NC(=O)NC1=O (centres undefined)
inactive: dose: 6.25 mg/kg/injection, schedule: Q01DX009 (ip), vehicle: saline with Tween-80 92 % of control | dose: 12.5 mg/kg/injection, schedule: Q01DX009 (ip), vehicle: saline with Tween-80 97 % of control | dose: 25.0 mg/kg/injection, schedule: Q04DX002 (ip), vehicle: saline with Tween-80 91 % of control

Cc1cc(C)c(CN)cc1CN
inactive: [17] 91 % of control | [18] 88 % of control | [6] 96 % of control

COc1ccc(OCCOC(=O)Nc2ccc(Cl)cc2C)cc1
inactive: [9] 90 % of control | [5] 96 % of control | [12] 100 % of control

CCC(C=O)(CC)CCC#N
inactive: dose: 25.0 mg/kg/injection, schedule: Q01DX001 (ip), vehicle: Klucel (hydroxypropylcellulose) (HPC) 96 % of control | dose: 50.0 mg/kg/injection, schedule: Q01DX001 (ip), vehicle: Klucel (hydroxypropylcellulose) (HPC) 103 % of control | dose: 100.0 mg/kg/injection, schedule: Q01DX001 (ip), vehicle: Klucel (hydroxypropylcellulose) (HPC) 87 % of control | [14] 103 % of control | [15] 100 % of control | [16] 100 % of control

CCCCCCCCN(c1ccc(C(=O)NC(CCC(=O)OCC)C(=O)OCC)cc1)S(=O)(=O)c1ccc(C)cc1 (centres undefined)
inactive: dose: 12.5 mg/kg/injection, schedule: Q04DX003 (ip), vehicle: saline with Tween-80 94 % of control | [17] 100 % of control | [18] 102 % of control | [6] 86 % of control | [7] 86 % of control | [8] 87 % of control

CNC(=O)NC1CCC(C)CC1 (centres undefined)
inactive: [19] 98 % of control | [20] 96 % of control | [21] 96 % of control

COc1ccc2c(c1)C1(C)CCCC(C#N)=C1CC2 (centres undefined)
inactive: [22] 96 % of control | [23] 96 % of control | [24] 92 % of control

O=C(Nc1ccccc1)OCC1CC2CCC1C2 (centres undefined)
inactive: [5] 87 % of control | [12] 93 % of control | [13] 95 % of control

CC(C)C12CCC(=O)C=C1CCCC2O (centres undefined)
inactive: dose: 100.0 mg/kg/injection, schedule: Q04DX003 (ip), vehicle: saline sonified 100 % of control | dose: 200.0 mg/kg/injection, schedule: Q04DX003 (ip), vehicle: saline sonified 100 % of control | dose: 400.0 mg/kg/injection, schedule: Q04DX003 (ip), vehicle: saline sonified 97 % of control

COc1ccc(OC)c(-c2csc(=O)s2)c1
inactive: dose: 25.0 mg/kg/injection, schedule: Q04DX002 (ip), vehicle: Klucel (hydroxypropylcellulose) (HPC) 107 % of control | dose: 50.0 mg/kg/injection, schedule: Q04DX002 (ip), vehicle: Klucel (hydroxypropylcellulose) (HPC) 96 % of control | dose: 100.0 mg/kg/injection, schedule: Q04DX002 (ip), vehicle: Klucel (hydroxypropylcellulose) (HPC) 102 % of control | dose: 200.0 mg/kg/injection, schedule: Q04DX002 (ip), vehicle: Klucel (hydroxypropylcellulose) (HPC) 102 % of control | dose: 400.0 mg/kg/injection, schedule: Q04DX002 (ip), vehicle: Klucel (hydroxypropylcellulose) (HPC) 94 % of control

COc1ccc(C2C3CCC(C3)C2N)cc1 (centres undefined)
inactive: dose: 5.0 mg/kg/injection, schedule: Q01DX009 (ip), vehicle: saline 96 % of control | dose: 10.0 mg/kg/injection, schedule: Q01DX009 (ip), vehicle: saline 96 % of control | dose: 20.0 mg/kg/injection, schedule: Q01DX009 (ip), vehicle: saline 92 % of control | dose: 25.0 mg/kg/injection, schedule: Q04DX003 (ip), vehicle: saline 101 % of control | dose: 50.0 mg/kg/injection, schedule: Q04DX003 (ip), vehicle: saline 96 % of control | [19] 90 % of control

O=C1c2ccccc2C(=O)N1CNc1ccc(Cl)cn1
inactive: [5] 86 % of control | [6] 97 % of control and 100 % of control | [7] 90 % of control and 98 % of control | [13] 86 % of control | [8] 91 % of control and 102 % of control

CC(=O)CC(=O)N(C)Cc1ccccc1
inactive: [14] 101 % of control | [15] 104 % of control | [16] 107 % of control

O=C(Nc1ccc(Cl)c(Cl)c1)Sc1ccc(Cl)cc1
inactive: [6] 105 % of control

Cc1ccc(S(=O)(=O)OC(c2ccccc2)C(F)(F)F)cc1 (centres undefined)
inactive: [14] 100 % of control | [15] 103 % of control | [16] 94 % of control

N=C(N)N1CCc2ccccc2C1
inactive: dose: 18.8 mg/kg/injection, schedule: Q01DX009 (ip), vehicle: saline 103 % of control | dose: 37.5 mg/kg/injection, schedule: Q01DX009 (ip), vehicle: saline 98 % of control | [10] 97 % of control | dose: 75.0 mg/kg/injection, schedule: Q01DX009 (ip), vehicle: saline 103 % of control

O=CNc1ccc(O)cc1
inactive: [6] 93 % of control | [7] 101 % of control | [8] 103 % of control

CCOC(=O)C1CC1C(=O)OC (centres undefined)
inactive: [9] 90 % of control | [5] 88 % of control | [12] 92 % of control

CC(=O)OC1CS(=O)(=O)CC1Br (centres undefined)
inactive: [14] 103 % of control | [15] 98 % of control | [16] 98 % of control

CC1(C)CC(=O)C2=C(C1)OC1=C(C(=O)CC(C)(C)C1)C2c1ccccc1Cl
inactive: [6] 102 % of control | [7] 100 % of control | [8] 104 % of control

[NH-]NC(=S)[S-].[NH-]NC(=S)[S-].[Ni]
inactive: [6] 98 % of control | [7] 102 % of control | [8] 107 % of control

C[N+](C)(C)C(Cc1c[nH]c2ccccc12)C(=O)O (centres undefined)
inactive: [22] 91 % of control | [19] 96 % of control and 100 % of control | [23] 101 % of control | [20] 105 % of control and 97 % of control | [24] 95 % of control | [21] 94 % of control and 95 % of control

CC(=O)Oc1ccccc1C(CC(C)C)OC(C)=O (centres undefined)
inactive: [22] 96 % of control | [23] 96 % of control

C/C=C/C(O)C(O)/C=C/C (centres undefined)
inactive: [14] 94 % of control | [15] 97 % of control | [16] 97 % of control
